Consider two molecules from patent US20170037030A1, “AUTOTAXIN INHIBITORS” (NOVARTIS AG, priority 2014, published 2017).

In this test the target is T1, Recombinant human ATX (Homo sapiens, UniProt Q13822).
T1 construct: made in house; host or cells: human embryonic kidney (HEK) cells
As to the kind of experiment: ATX inhibition assay (released choline, Amplex Red fluorescence). In kind it is biochemical. To be noted: ATX 10 nM, LPC 18:1 10 μM, pre-incubated with ATX at 37° C. for 20 minutes; mean of n≧2. As for the experimental part: Reagents—LPC (oleoyl (18:1)) was purchased from Avert Polar Lipids (Alabaster, Ala.) and solubilized in methanol to 20 mM. Amplex Red was obtained from Invitrogen Life Technologies (Paisley, UK) and dissolved in DMSO to 10 mM. Choline oxidase and horseradish peroxidase (HRP) were obtained from Sigma Aldrich (Dorset, UK) and dissolved in HBSS to 20 U/ml and 200 U/ml respectively. All reagents were stored at −20° C. in single use aliquots. All experimental measurements were performed in assay buffer made up immediately prior to use (HBSS, 0.01% BSA essentially fatty acid free). […]
Method—All experimental measurements were performed in black 384 well polystyrene (low volume, round bottom, Corning (3676)) plates. PerkinElmer EnVision (Fluorescence Intensity/Absorbance Monochromator) or Tecan Infinite 200 PRO series plate reader was used to detect change in fluorescent intensity.
Assessing ATX inhibition—ATX activity was determined by measurement of released choline in reactions containing ATX (10 nM), choline oxidase (0.1 U/ml), HRP (100 U/ml), amplex red (50 μM) and LPC 18:1 (10 μM). […] The liberated choline was measured from changes in fluorescence intensity (Aex 530 nm, Aem 590 nm) of the product resurofin at 37° C. every 2 minutes over a 40-minute period. ATX activity was measured as a slope of the linear portion of the progress curve, typically between 14 to 24 minutes. […]

For the molecule `O=C(CCC(O)c1c[nH]nn1)NC1CCN(C(=O)OCc2cc(Cl)cc(Cl)c2)CC1` (centres unmarked) [Example 2, 3,5-dichlorobenzyl 4-(4-hydroxy-4-(1H-1,2,3-triazol-4-yl)butanamido)piperidine-1-carboxylate], the IC50 – broadly, the concentration that inhibits the measured activity by half – came to 10 nM.
Under `O=C(CCC(=O)c1c[nH]nn1)NC1CCN(C(=O)OCc2cc(Cl)cc(Cl)c2)CC1` [Example 1, 3,5-dichlorobenzyl 4-(4-oxo-4-(1H-1,2,3-triazol-4-yl)butanamido)piperidine-1-carboxylate] stands 70 nM.
